Reference: patent publication US20150268247A1, “Assay for Screening of Anti-Viral Compounds That Inhibit Specific Interaction Interfaces Between Cullin5 and an ElonginB/ElonginC/ CBF-beta/HIV-1 Vif Complex” (UNIVERSITY OF ROCHESTER, priority 2012, published 2015)
Residues, ends and D or L forms follow the SMILES beside them. *: point of attachment. 5FAM = O=C1OC2(c3ccc(O)cc3Oc3cc(O)ccc32)c2ccc(C(=O)*)cc21; Ahx = NCCCCCC(=O)O

Biological target: T1, Vif/EloB/C/CBFβ (UniProt P69723+Q15369)
T1 construct: Vif in the context of the Vif/EloB/C/CBFβ is full-length Vif (amino acids 1-192); co-expressing EloB1-118 and EloC17-112 from MCS1 and MCS2, respectively, from a pETDuet-1 vector (pEloBC); made in house; host or cells: E. coli BL21(DE3)
Test: Fluorescence anisotropy of 5-FAM Cul5 peptides with Vif/EloB/C/CBFβ
Assay type: binding, HIV-1 Vif; human EloB/C/CBFβ
Excerpt: The dissociation constant (KD) for each interaction is provided.

| SMILES | Kd [µM] |
| --- | --- |
| CC(C)C[C@H](NC(=O)CCCCCNC(=O)c1ccc2c(c1)C(=O)OC21c2ccc(O)cc2Oc2cc(O)ccc21)C(=O)N[C@@H](CCCNC(=N)N)C(=O)N[C@@H](CCC(N)=O)C(=O)N[C@@H](CCC(=O)O)C(=O)N[C@@H](CO)C(=O)N[C@H](C(=O)N[C@H](C(=O)N[C@@H](CCCCN)C(=O)N[C@@H](CCC(N)=O)C(=O)N[C@@H](CCC(N)=O)C(=O)N[C@@H](Cc1c[nH]c2ccccc12)C(=O)O)[C@@H](C)O)C(C)C [Cul5(30-40)] ({5FAM-Ahx}-LRQESVTKQQW-OH) | 16 |
| CC(C)C[C@H](NC(=O)[C@H](CS)NC(=O)[C@@H](NC(=O)[C@H](C)NC(=O)[C@H](Cc1c[nH]cn1)NC(=O)[C@@H](NC(=O)[C@H](CC(=O)O)NC(=O)[C@H](CO)NC(=O)[C@H](Cc1ccccc1)NC(=O)[C@H](CC(C)C)NC(=O)[C@H](CC(=O)O)NC(=O)[C@H](Cc1ccccc1)NC(=O)[C@H](Cc1c[nH]c2ccccc12)NC(=O)[C@H](CCC(N)=O)NC(=O)[C@H](CCC(N)=O)NC(=O)[C@H](CCCCN)NC(=O)CCCCCNC(=O)c1ccc2c(c1)C(=O)OC21c2ccc(O)cc2Oc2cc(O)ccc21)C(C)C)C(C)C)C(=O)N[C@@H](Cc1c[nH]c2ccccc12)C(=O)O [Cul5(37-53)] ({5FAM-Ahx}-KQQWFDLFSDVHAVCLW-OH) | 1.2 |
| CC(C)C[C@H](NC(=O)CCCCCNC(=O)c1ccc2c(c1)C(=O)OC21c2ccc(O)cc2Oc2cc(O)ccc21)C(=O)N[C@@H](Cc1ccccc1)C(=O)N[C@@H](CO)C(=O)N[C@@H](CC(=O)O)C(=O)N[C@H](C(=O)N[C@@H](Cc1c[nH]cn1)C(=O)N[C@@H](C)C(=O)N[C@H](C(=O)N[C@@H](CS)C(=O)N[C@@H](CC(C)C)C(=O)N[C@@H](Cc1c[nH]c2ccccc12)C(=O)N[C@@H](CC(=O)O)C(=O)O)C(C)C)C(C)C [Cul5(43-54)] | 2.5 |
| CC[C@H](C)[C@H](NC(=O)[C@H](CCCCN)NC(=O)[C@H](C)NC(=O)[C@@H]1CCCN1C(=O)CNC(=O)[C@H](CCCCN)NC(=O)[C@H](CC(=O)O)NC(=O)[C@H](CC(=O)O)NC(=O)[C@H](Cc1c[nH]c2ccccc12)NC(=O)[C@H](CC(C)C)NC(=O)[C@H](CS)NC(=O)[C@@H](NC(=O)[C@H](C)NC(=O)[C@H](Cc1c[nH]cn1)NC(=O)[C@@H](NC(=O)[C@H](CC(=O)O)NC(=O)[C@H](CO)NC(=O)[C@H](Cc1ccccc1)NC(=O)[C@H](CC(C)C)NC(=O)CCCCCNC(=O)c1ccc2c(c1)C(=O)OC21c2ccc(O)cc2Oc2cc(O)ccc21)C(C)C)C(C)C)C(=O)N[C@@H](Cc1c[nH]cn1)C(=O)N[C@@H](CCC(N)=O)C(=O)N[C@@H](C)C(=O)N[C@@H](CC(C)C)C(=O)O [Cul5(43-65)] | 4.7 |
